# Laboratory results as given in patent publication US20240343747A1, “Heteroaryl compounds as inhibitors of TYK2, composition and application thereof” (Accro Bioscience (HK) Limited, priority 2021, published 2024).
# Legend:
# JAK1/JAK3 pathway = test: Selectivity: JAK1/JAK3 pathway, IL-2-induced p-STAT5 in human PBMC, western blot; format: cell-based; conditions: IL-2 100 ng/mL
# Description: Commercial human PBMC (peripheral blood mononuclear cells) were centrifuged (400 g) for 10 min, counted and seeded into 6-well plates (5 million/well). The compounds to be tested were added for 2 hours and then IL-2 (100 ng/mL) was added to stimulate cells for 15 minutes. Finally, p-STAT5/STAT5 and internal reference protein β-actin were detected by Western blot.
# JAK2 JH1 = JAK2 JH1 (Homo sapiens (Human), UniProt O60674); test: Competitive binding assay (kinase-tagged phage, qPCR), JAK2 JH1
# Description: For most assays, kinase-tagged T7 phage strains were prepared in an E. coli host derived from the BL21 strain. E. coli were grown to log-phase and infected with T7 phage and incubated with shaking at 32° C. until lysis. The lysates were centrifuged and filtered to remove cell debris. The remaining kinases were produced in HEK-293 cells and subsequently tagged with DNA for qPCR detection. Streptavidin coated magnetic beads were treated with biotinylated small molecule ligands for 30 minutes at room temperature to generate affinity resins for kinase assays. The liganded beads were blocked with excess biotin and washed with blocking buffer (SeaBlock (Pierce), 1% BSA, 0.05% Tween 20, 1 mM DTT) to remove unbound ligand and to reduce non-specific binding. […] Test compounds were prepared as 111X stocks in 100% DMSO. Dissociation constants (Kds) were determined using an 11-point 3-fold compound dilution series with three DMSO control points. […] The kinase concentration in the eluates was measured by qPCR.
# An 11-point 3-fold serial dilution of each test compound was prepared in 100% DMSO at 100× final test concentration and subsequently diluted to 1× in the assay (final DMSO concentration=1%). Most Kds were determined using a compound top concentration=30,000 nM. […]
# Binding constants (Kds) were calculated with a standard dose-response curve using the Hill equation: […]
# TYK2/JAK1 pathway = test: Selectivity: TYK2/JAK1 pathway, IFN-α-induced p-STAT1 in human PBMC, western blot; format: cell-based
# Description: Commercial human PBMC (peripheral blood mononuclear cells) were centrifuged (400 g) for 10 min, counted and planted on 6-well plates (5 million/well). Then, the compounds to be tested were added for 2 hours and IFN-α (100 ng/mL) was added to stimulate cells for 15 minutes. Protein lysate was used to lysate cells, and BCA kit was used for protein quantification. Finally, p-STAT1/STAT1, P-TYK2/TYK2 and internal reference protein B-Actin were detected by Western blot.
# [1] = Metabolic stability test, human liver microsomes; format: in vitro ADME
# Description: (§1) • 1. Buffer A: 1.0 L of 0.1 M monobasic Potassium Phosphate buffer containing 1.0 mM EDTA • Buffer B: 1.0 L of 0.1 M Dibasic Potassium Phosphate buffer containing 1.0 mM EDTA • Buffer C: 0.1 M Potassium Phosphate buffer, 1.0 mM EDTA, at about pH 7.4 by titrating 700 mL of Buffer B with Buffer A while monitoring with the pH meter. • 2. Reference compounds (Ketanserin) and test compounds spiking solution: • 500 µM spiking solution: add 10 μL of 10 mM DMSO stock solution into […] ACN. • 1.5 µM spiking solution in microsomes (0.75 mg/mL): add 1.5 μL of 500 µM spiking solution and 18.75 μL of 20 mg/mL liver microsomes into 479.75 μL of Buffer C on ice. • 3. Prepare NADPH stock solution (6 mM) by dissolving NADPH into buffer C. • 4. Dispense 30 μL of 1.5 µM spiking solution containing 0.75 mg/mL microsomes solution to the assay plates designated for different time points (0-, 5-, 15-, 30-, 45-min) on ice. • 5. For 0-min, add 135 μL of ACN containing IS to the wells of 0-min plate and then add 15 μL of NADPH stock solution (6 mM). • 6. Pre-incubate all other plates at 37° C. for 5 minutes. • 7. Add 15 μL of NADPH stock solution (6 mM) to the plates to start the reaction and timing. • 8. At 5-min, 15-min, 30-min, and 45-min, add 135 μL of ACN containing IS to the wells of corresponding plates, respectively, to stop the reaction. • 9. After quenching, shake the plates at the vibrator (IKA, MTS 2/4) for 10 min (600 rpm/min) and then centrifuge at 5594 g for 15 min (Thermo Multifuge×3R). • 10. Transfer 50 μL of the supernatant from each well into a 96-well sample plate containing 50 μL of ultra pure water (Millipore, ZMQS50F01) for LC/MS analysis.
# [2] = Metabolic stability test, rat liver microsomes; format: in vitro ADME
# Description: as §1
# Sequence of JAK2 JH1 (O60674 849-1124): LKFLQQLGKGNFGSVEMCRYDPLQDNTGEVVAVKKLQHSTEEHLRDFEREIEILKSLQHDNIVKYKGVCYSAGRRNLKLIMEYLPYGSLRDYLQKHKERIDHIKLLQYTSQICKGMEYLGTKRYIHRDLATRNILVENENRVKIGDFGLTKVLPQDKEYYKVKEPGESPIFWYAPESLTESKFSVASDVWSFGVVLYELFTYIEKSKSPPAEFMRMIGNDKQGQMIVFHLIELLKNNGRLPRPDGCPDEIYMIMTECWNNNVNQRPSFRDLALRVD
Kd (JAK2 JH1),stability in human liver microsomes (in words) ([1]; conclusion from Table 5),CL HLM ([1]; human liver microsomes),"half-life at 1 μM ([1]; pH 7.4, human liver microsomes, read-out: T1/2 HLM)",stability in rat liver microsomes (in words) ([2]; conclusion from Table 5),"half-life at 1 μM ([2]; pH 7.4, rat liver microsomes, read-out: T1/2 RLM)",CL RLM ([2]; rat liver microsomes),SMILES,effect on IL-2-induced downstream STAT5 phosphorylation (JAK1/JAK3 pathway),inhibition of TYK2/JAK1 pathway compared with BMS986165 (TYK2/JAK1 pathway; IFN-α),"inhibition of downstream STAT1 phosphorylation induced by IFN-α (TYK2/JAK1 pathway; IFN-α 100 ng/mL, western blot)"
> 30 µM,,,,,,,"CCC(=O)c1cnc(NC(=O)C2CC2)cc1Nc1cccc(-c2cc(P(=O)(C3CC3)C3CC3)n(C)n2)c1OC [Compound B37, N-(4-((3-(5-(dicyclopropylphosphoryl)-1-methyl-1H-pyrazol-3-yl)-2-methoxyphenyl)amino)-5-propionylpyridin-2-yl)cyclopropanecarboxamide]",no effect,better inhibitory activity than BMS986165,effectively inhibit
,good stability,<8.6 mL/min/kg,> 2.42 h,good stability,1.68 h,24.6 mL/min/kg,"CCC(=O)c1cnc(NC(=O)C2CC2)cc1Nc1cccc(-c2cc(P(C)(C)=O)n(C)n2)c1OC [Compound B2, N-(4-((3-(5-(dimethylphosphoryl)-1-methyl-1H-pyrazol-3-yl)-2-methoxyphenyl)amino)-5-propionylpyridin-2-yl)cyclopropanecarboxamide]",,,
